Values after ≈ are worked out from the molar mass of the structure shown.
Tests used:
[1] = Fraction unbound in human plasma (Prot. Bind.), equilibrium dialysis; format: in vitro ADME; details: 5 μM, dialysis at 37 °C for 18 hours
Text: (§1) 5. Pharmaceutically relevant properties modulation
(§2) Product analogues 5e, 6a-6k obtained after late-stage meta-C–H alkylation of the pharmaceutically active compound Emapunil (4e) were subjected to a range of fundamental in vitro drug discovery assays. To prevent hydrolysis of ester groups present on these analogues during biological testing (in order to compare the clearance and metabolic stability between these drug derivatives), their corresponding free acids 5e’, 6a’-6k’ were synthesised (see page S54) and subjected to similar assays.
(§3) The experimental methods used for these physicochemical & drug metabolism and pharmacokinetics (DMPK) assays are described below 11. […]
Fraction unbound in human plasma (Prot. Bind.)
Equilibrium dialysis of compounds was used to assess the fraction unbound in human plasma. Stock solutions of compounds dissolved in DMSO were pooled into cassettes with up to 10 compounds in each cassette with a concentration of 1 mM. The pooled stock solutions were diluted in plasma to a compound concentration of 5 μM. Warfarin, propranolol and metoprolol were used as reference compounds in each run. The equilibrium dialysis device (RED, Thermo Fischer Scientific Inc., Rockford, USA) was used for dialysis against phosphate buffer (pH 7.4) at 37 °C for 18 hours. Calibration curves ranging from 0.001 to 7 μM were made using aliquots of the 7 μM spiked plasma pools that were transferred to a new plate followed by serial dilutions with blank plasma. Calibration curve samples and dialysis samples were precipitated with MeCN and after centrifugation, supernatants were removed and analysed using LC-MS/MS (Waters Xevo-TQS). Fraction unbound in the incubation was calculated as the concentration in the media buffer sample divided by the concentration in the plasma sample. The fraction unbound was reported as the median value.

[2] = Octanol/water partitioning (LogD), shake-flask method; format: physicochemical; details: n = 1
Text: as §1, §2, §3
Octanol/water partitioning (LogD)
Partitioning of compounds between 1 -octanol and phosphate buffer (0.1 M, pH 7.4) at 20 °C were determined using a modified version of the shake -flask method described by Leo et al13. Compounds were dissolved in a 96 -well plate, in 400 μL octanol, and 400 μL of buffer was added to each well. The plate was vigorously stirred for 5 min and then put on an Edmund Bühler shaker (Edmund Bühler GmbH, Hechingen, Germany) at 20 °C for 18 hours. Aliquots of 5 μL octanol were transferred and diluted with 495 μL MeCN/H2O (1:1) and, to avoid contamination of the buffer, the rest of the octanol was removed before 150 μL of buffer samples were transferred. Octanol and buffer samples were diluted with MeCN/H2O (1:1) in four steps of 10 times to yield octanol samples diluted 10 2 to 106 times and buffer samples diluted 1 to 104 times. LC-MS/MS (Waters Xevo-TQS) was used for analysis, and distribution coefficient at pH 7.4 (LogD7.4) was calculated from the integrated peak areas of the samples in the linear MS response range. LogD7.4 results were reported as median values. […]

[3] = Metabolic stability in male Han Wistar rat hepatocytes (CLint Rat Hep.); format: in vitro ADME; details: measured on the labelled compound itself, 1 μM, 10^6 viable cells/mL, 37 °C, n = 1
Procedure: Metabolic stability in male Han Wistar rat hepatocytes (CLint Rat Hep.) Hepatocyte metabolic stability was determined in accordance with the method described by Jacobson et al14. Cryopreserved hepatocytes at a concentration of 10 6 viable cells/mL were used. After thawing, hepatocytes were incubated for 10 min to warm to 37 °C, and compounds dissolved in MeCN were […]
incubation system was mixed and 20 μL aliquots were transferred at each time point to wells in a separate plate filled with 80 μL MeCN to stop the reaction. The quenching plate was then vortexed followed by centrifugation, and supernatants were analysed by LC-MS/MS (Waters Xevo-TQS). Peak areas were determined from extracted ion chromatograms, and the in vitro intrinsic clearance (in vitro CLint, in μL/min/10^6 cells) of parent compound was calculated from the slope in the regression analysis of the natural logarithm of parent concentration vs. time curve. Rat Hepatocytes (Cryosuspension, Male Wistar Hannover ) were harvested and s upplied by BioIVT (Product No. M00065, Lot No. DVO).
(§4) The modulation of pharmaceutically relevant properties on meta-C–H alkylation is shown below in Supplementary Fig. 68, with a selection of physicochemical and DMPK data including solubility , LogD, human plasma protein binding (Prot. Bind.) and intrinsic clearance (CLint) in human liver microsomes (HLM) or rat hepatocytes (Rat Hep.) .

[4] = Thermodynamic solubility, shake-flask approach, phosphate buffer pH 7.4; format: physicochemical; details: pH 7.4, phosphate buffer 0.1 M, 20 °C, n = 1
Text: as §1, §2
The experimental methods used for these physicochemical & drug metabolism and pharmacokinetics (DMPK) assays are described below 11.
This method measures the thermodynamic solubility of compounds based on a shake-flask approach12.
The nature of the solid state was unknown in these experiments and may be subject to variability. The compounds were dissolved in DMSO (30 μL, 10 mM) in glass vials, and were dried using a Genevac vacuum evaporator (Genevac Ltd, Ipswich, UK). When the samples were dry, 300 μL of phosphate buffer (0.1 M, pH 7.4) was added to the glass vials. The vials were put on an Edmund Bühler shaker (Edmund Bühler GmbH, Hechingen, Germany) at 20 °C for 18 hours. Samples were filtered through a Whatman GF/B 96-well filter and 20 μL of filtrated samples were transferred to separate wells in a plate containing 180 μL MeCN/H2O (1:1). Standards were prepared by diluting the 10 mM compound solutions with MeCN/H2O (1:1) to 200 μM. Three further dilution steps of 10 times were applied to both the samples and standards and they were all analy sed by LC-MS/MS (Waters Xevo-TQS). Solubility was determined using the integrated peak areas of the samples in the linear MS response range. […]

[5] = Metabolic stability in human liver microsomes (CLint HLM); format: in vitro ADME; details: 1 mg/mL microsomal protein, 1 mM NADPH, 37 °C; for microsomal CLint at 1 μM: both sexes, human, liver microsomes, pH 7.4, measured on the labelled compound itself, n = 1, read-out: CLint HLM (intrinsic clearance in human liver microsomes); for CLint HLM (intrinsic clearance in human liver microsomes): measured on the labelled compound itself, 1 μM, n = 1
Procedure: Metabolic stability in human liver microsomes (CLint HLM)
Human liver microsomes were defrosted on ice and diluted to 1 mg/mL of microsomal protein in phosphate buffer (0.1 M, pH 7.4). Compounds at 1 μM were incubated with the liver microsome suspensions and 1 mM NADPH at 37 °C in a 96-well plate. At 0.5, 5, 10, 15, 20 and 30 min, aliquots of 30 μL were transferred to a 96-well plate containing 120 μL MeCN. This plate was centrifuged for 20 min and supernatant was removed and diluted with H2O (1:1) before analysis by LC-MS/MS (Waters Xevo-TQS). Peak areas were determined from extracted ion chromatograms, and the in vitro intrinsic clearance (in vitro CLint, in μL/min/mg microsomal protein) of parent compound was calculated from the slope in the regression analysis of the natural logarithm of parent concentration vs. time curve.
Human Liver Microsomes (InVitroCYPTM 150-Donor, Mixed Gender) were harvested and supplied by BioIVT (Product No. X008070, Lot No. QQY). […]
as §4

[6] = 1-octanol / phosphate buffer pH 7.4, 20 °C
[7] = aqueous buffer, thermodynamic from solid
[8] = 1-octanol/phosphate buffer, pH 7.4, 1-octanol / phosphate buffer pH 7.4, 20 °C

Compound | Prot. Bind. (% free), human plasma protein binding ([1]; n = 1) | Prot. Bind. (% free), human plasma protein binding ([1]; n = 1, listed as 6g’) | LogD (octanol) [2, 6] | logD [2, 6] | CLint Rat Hep. (intrinsic clearance in rat hepatocytes) [3] | CLint Rat Hep. (intrinsic clearance in rat hepatocytes) ([3]; listed as 6g’) | solubility at 18 h [4, 7] | solubility at 18 h [4] | microsomal CLint at 1 μM [5] | CLint HLM (intrinsic clearance in human liver microsomes) [5] | Prot. Bind. (% free), human plasma protein binding ([1]; n = 1, listed as 5e’) | logD [2, 8] | CLint Rat Hep. (intrinsic clearance in rat hepatocytes) ([3]; listed as 5e’) | CLint Rat Hep. (intrinsic clearance in rat hepatocytes) ([3]; listed as 6h’) | Prot. Bind. (% free), human plasma protein binding ([1]; n = 1, listed as 6b’) | CLint Rat Hep. (intrinsic clearance in rat hepatocytes) ([3]; listed as 6b’)
CCOP(=O)(OCC)C(F)(F)c1cccc(-c2ncc3c(n2)n(CC(=O)N(CC)Cc2ccccc2)c(=O)n3C)c1 [6g] | 2.0 % free | 3.7 % free | -0.8 | 4.4 | > 300 μL/min/10^6 | 4.2 μL/min/10^6 | 46 µM (≈ 27 µg/mL) | > 1000 µM | > 300 µL/min/mg | < 3.0 µL/min/mg | – | – | – | – | – | –
CCOC(=O)C1(c2cccc(-c3ncc4c(n3)n(CC(=O)N(CC)Cc3ccccc3)c(=O)n4C)c2)CCC1 [5e] | 0.4 % free | – | 0.7 | – | > 300 μL/min/10^6 | – | 17 µM (≈ 8.97 µg/mL) | > 1000 µM | > 300 µL/min/mg | 5.5 µL/min/mg | 2.0 % free | 4.4 | 15.9 μL/min/10^6 | – | – | –
CCOC(=O)C1(c2cccc(-c3ncc4c(n3)n(CC(=O)N(CC)Cc3ccccc3)c(=O)n4C)c2)COC1 [6h] | 14.0 % free | – | -1.0 | – | > 300 μL/min/10^6 | – | 58 µM (≈ 30.7 µg/mL) | > 1000 µM | > 300 µL/min/mg | 4.6 µL/min/mg | – | 3.1 | – | 19.3 μL/min/10^6 | – | –
CCN(Cc1ccccc1)C(=O)Cn1c(=O)n(C)c2cnc(-c3ccccc3)nc21 [4e, emapunil, reference compound] | 0.8 % free | – | – | – | 164 μL/min/10^6 | – | 6 µM (≈ 2.41 µg/mL) | – | 218 µL/min/mg | – | – | 3.2 | – | – | – | –
CCOC(=O)C(C)(C)c1cccc(-c2ncc3c(n2)n(CC(=O)N(CC)Cc2ccccc2)c(=O)n3C)c1 [6b] | 0.8 % free | – | 0.5 | – | > 300 μL/min/10^6 | – | 8 µM (≈ 4.12 µg/mL) | > 1000 µM | > 300 µL/min/mg | 11.1 µL/min/mg | – | 4.2 | – | – | 3.0 % free | 10.3 μL/min/10^6

Source: publication PMC11026381, “Late-stage meta-C–H alkylation of pharmaceuticals to modulate biological properties and expedite molecular optimisation in a single step” (Nature Communications, 2024)
